Data reported in article doi:10.1101/2025.08.13.670122v1 (bioRxiv, 2025).

Target: T1, AT1R (Homo sapiens, UniProt P30556)
T1 sequence (P30556 1-359): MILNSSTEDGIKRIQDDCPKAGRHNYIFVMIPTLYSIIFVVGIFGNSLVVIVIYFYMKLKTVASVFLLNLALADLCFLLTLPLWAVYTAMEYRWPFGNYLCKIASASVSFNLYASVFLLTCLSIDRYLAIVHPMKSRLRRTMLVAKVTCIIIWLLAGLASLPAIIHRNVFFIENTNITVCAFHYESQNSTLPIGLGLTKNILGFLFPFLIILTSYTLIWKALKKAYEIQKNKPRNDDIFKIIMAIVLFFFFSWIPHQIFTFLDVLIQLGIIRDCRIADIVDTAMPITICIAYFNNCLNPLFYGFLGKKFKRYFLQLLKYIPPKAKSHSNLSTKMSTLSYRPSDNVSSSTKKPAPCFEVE
Experiment: Rho BRET sensor (PKN-RBD-RlucII/rGFP-CAAX) in ΔG12/13 HEK293 cells expressing AT1R
Format: cell-based
Parameters: expressed in transfected cells; host or cells: HEK293 cells, transient PEI transfection
Conditions: for Emax Rho Gαq/11 (% AngII): ΔG12/13 HEK293/AT1R, Rho BRET sensor, response at 10 μM, normalised to AngII; for EC50: ΔG12/13 HEK293 cells expressing AT1R, Rho (PKN-RBD-RlucII/rGFP-CAAX) BRET sensor, 3 min stimulation, mean ± SEM of at least three to five independent experiments, SEM, read-out: EC50 Rho Gαq/11
Source text: We utilized a clonal cell line HEK293, referred to hereafter as HEK293 cells, which has been previously described.[7],[8] As a gracious gift from A. Inoue (Tohoku University, Sendai, Miyagi, Japan), CRISPR Gαq/11 and Gα12/13 knockout cell lines (ΔGq/11 and ΔG12/13, respectively), were derived as previously explained.[48] In brief, a CRISPR-Cas9 system was used to target either GNAQ and GNA11 or GNA12 and GNA13 genes in HEK293T cells simultaneously to generate the Gαq/11 and Gα12/13 knockout cell lines. For the production of adenovirus, we utilized HEK293A cells. All cells were grown in DMEM supplemented with 10% FBS and Penicillin-Streptomycin-L-Glutamine (10000 IU penicillin, 10000 µg/mL Streptomycin, 200 mM L-Glutamine) at 37°C in T175 flasks under a 5% CO2 humidified chamber. Periodic testing was carried out for mycoplasma contamination (ABM™, Mycoplasma PCR Detection kit). For all biosensors used, cells underwent transfection with the PEI reagent, employing a PEI:DNA ratio of 3:1. For the Gαq biosensor, HEK293 cells were transfected with the plasmids coding for Gαq-RLucII (120 ng), Gβ1 (3000 ng), Gγ1-GFP10 (3000 ng), human AT1 (3000 ng) and Salmon sperm DNA (SSD) (880 ng). For the β-arrestin2 recruitment assay, HEK293 cells were transfected with the plasmids coding for 120 ng β-arrestin-2-RLucII, 3000 ng AT1, 3000 ng rGFP-CAAX, and 3880 ng SSD. For the measurement of PKC, HEK293 cells were transfected with 3000 ng AT1, 600 ng PKC-c1b, and 6400 ng SSD. […] 100 µL of the cell/DNA mixture was added to white 96-well plates and incubated at 37°C at 5% CO2 for 48 h. For the Rho assay, ΔG12/13 cells were seeded at a density of 9,000 cells per well in poly-ornithine-coated white 96-well plates and transfected the following day. In brief, 1 μg of total DNA in 100 μL of PBS was mixed with 100 μL of PBS containing 3 μL of 1 mg/mL PEI. For Rho signaling, 150 ng of AT1R DNA with 25 ng of PKN-RBD-RlucII [8], and 100 ng of rGFP-CAAX were used. Empty pcDNA was used to reach 1 µg of the total DNA amount in 100 μL of PBS. The DNA was then mixed with 100 μL of PBS containing 3 μL of 1 mg/mL PEI. After a 20-min incubation, the DNA/PEI complexes were dispensed into cells in 96-well plates (15 µL/well), and the experiment was carried out 48 h post-transfection.
On the day of the experiment, each well was washed with 80 µL of Tyrode’s buffer (140 mM NaCl, 2.7 mM KCl, 1 mM CaCl2, 12 mM NaHCO3, 5.6 mM D-glucose, 0.5 mM MgCl2, 0.37 mM NaH2PO4, 25 mM Hepes (pH 7.4)). This was followed by incubation for 1 h in Tyrode’s buffer at room temperature. […] Cells were then stimulated with increasing doses of the indicated ligand, and BRET signals were measured using a Tristar2 (Berthold) microplate reader 10 min later. […] BRET signals were then measured using a Synergy2 (BioTek) microplate reader. […]

SMILES	Emax Rho Gαq/11 (% AngII)	EC50
CC[C@H](C)[C@H](NC(=O)[C@H](Cc1ccc(O)cc1)NC(=O)[C@@H](NC(=O)[C@H](CCCNC(=N)N)NC(=O)[C@@H](N)CC(=O)O)C(C)C)C(=O)N[C@@H](Cc1c[nH]cn1)C(=O)N1CCC[C@H]1C(=O)N[C@@H](Cc1ccc(OC)cc1)C(=O)O [compound 11]	105 % AngII	2.3 ± 0.5 nM
CC[C@H](C)[C@H](NC(=O)[C@H](Cc1ccc(O)cc1)NC(=O)[C@@H](NC(=O)[C@H](CCCNC(=N)N)NC(=O)[C@@H](N)CC(=O)O)C(C)C)C(=O)N[C@@H](Cc1c[nH]cn1)C(=O)N1CCC[C@H]1C(=O)N[C@@H](Cc1ccc(OCc2ccccc2)cc1)C(=O)O [compound 12]	47 % AngII	21 ± 5 nM
